According to patent US9790252B2, “2-fluorinated riboses and arabinoses and methods of use and synthesis” (CORNELL UNIVERSITY, priority 2009, dated 2017):

Experiments:
HEK293 cells = experiment: Toxicity to HEK293 cells (MTT); assay type: cell-based; conditions: for 100 μM absorbance / 100 μM relative viability: HEK293, 100 μM; for 100 μM absorbance / 100 μM relative viability / 500 μM absorbance / 500 μM relative viability: 12 hours; for 100 μM absorbance / 500 μM absorbance: 570 nm; for 100 μM relative viability / 500 μM relative viability: control = 1; for 500 μM absorbance / 500 μM relative viability: HEK293, 500 μM; for EC50: HEK293, 2′-deoxy-2′-fluoro-nucleosides and nucleotides
Procedure: 1. HEK293 cells were seeded in 96-well plate at a density of 25,000 cells/well the day before the experiment starts;
2. After the cells reach 50˜60% confluency, media was taken out, and 100 μL of fresh media was added to each well;
3. F-derivatives were plated at 100 and 500 μM (in duplicates) concentrations;
4. After 12 hours' incubation at 37° C., the media was taken out, 100 μL of fresh media was added to each well along with 20 μL of 5 mg/mL of MTT solution (in PBS);
5. After 1.5 hours' incubation at 37° C., media was taken out and 100 μL of DMSO was added to each well, the plate was mixed on shaker for 5 mins;
(§1) Absorbance was measured at 570 nm.
(§2) Assay for Determining Toxicity to HEK293 and Neuro2A Cells • 1. HEK293 and Neuro2A cells were seeded in 96-well plate at a density of 25,000 cells/well the day before the experiment starts; • 2. After the cells reach 50˜60% confluency, media was taken out, and 100 μL of fresh media was added to each well; • 3. Cl-derivatives were plated at 100 and 500 μM (in duplicates) concentrations; • 4. After 12 hours' incubation at 37° C., the media was taken out, 100 μL of fresh media was added to each well along with 20 μL of 5 mg/mL of MTT solution (in PBS); • 5. After 2 hours' incubation at 37° C., media was taken out and 100 μL of DMSO was added to each well, the plate was mixed on shaker for 5 mins; • 6. Absorbance was measured at 570 nm.

Neuro2A cells = experiment: Toxicity to Neuro2A cells (MTT); assay type: cell-based; conditions: for 100 μM absorbance / 100 μM relative viability / 500 μM absorbance / 500 μM relative viability: 12 hours; for 100 μM absorbance / 500 μM absorbance: 570 nm; for EC50: 2′-deoxy-2′-fluoro-nucleosides and nucleotides
Procedure: 6. Neuro2A cells were seeded in 96-well plate at a density of 25,000 cells/well the day before the experiment starts;
7. After the cells reach 50˜60% confluency, media was taken out, and 100 μL of fresh media was added to each well;
8. […]
9. After 12 hours' incubation at 37° C., the media was taken out, 100 μL of fresh media was added to each well along with 20 μL of 5 mg/mL of MTT solution (in PBS);
10. After 1.5 hours' incubation at 37° C., media was taken out and 100 μL of DMSO was added to each well, the plate was mixed on shaker for 5 mins;
as §1
as §2, with “Cl-derivatives were plated at 100 and 500 μM (in duplicates) concentrations; • 4.” left out

SirT2 = biological target: T1, SirT2 (Homo sapiens, UniProt Q8IXJ6); experiment: SirT2 activity assay (HPLC of 2′- and 3′-AADPR); assay type: biochemical; conditions: at 1 mM; read-out: SirT2 % inhibited
T1 sequence (Q8IXJ6 1-389): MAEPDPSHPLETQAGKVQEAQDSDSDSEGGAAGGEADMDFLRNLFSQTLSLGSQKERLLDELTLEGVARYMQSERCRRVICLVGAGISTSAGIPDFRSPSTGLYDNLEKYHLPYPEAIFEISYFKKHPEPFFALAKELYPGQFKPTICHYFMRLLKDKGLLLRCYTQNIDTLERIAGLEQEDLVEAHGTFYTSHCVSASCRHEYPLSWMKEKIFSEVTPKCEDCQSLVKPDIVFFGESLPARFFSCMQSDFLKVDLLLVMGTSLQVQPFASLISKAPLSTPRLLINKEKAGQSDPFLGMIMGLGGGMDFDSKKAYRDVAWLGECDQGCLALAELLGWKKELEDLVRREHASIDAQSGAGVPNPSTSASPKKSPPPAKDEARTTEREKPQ
Procedure: (§3) Reactions containing 800 μM NAD^+, 500 μM H3 peptide, and 100 mM phosphate buffer at pH 7.5, with varying concentrations of 2′-deoxy-2′-fluoro-nucleosides or nucleotides were initiated by addition of SirT2 enzyme to a concentration of 16.6 μM. Reactions were incubated for 45 mins at 37° C. and quenched by addition of trifluoroacetic acid to pH 2. After centrifugation to remove precipitates, reactions were injected on HPLC for activity analysis. Production of 2′- and 3′-AADPR were analyzed at 260 nm.
as §3, with “SirT2 Activity Assay: Reactions containing” for “Reactions containing”, “concentrations of 2′-deoxy-2′-chloro-nucleosides were initiated” for “concentrations of 2′-deoxy-2′-fluoro-nucleosides or nucleotides were initiated”

SirT3 = biological target: T2, SirT3 (Homo sapiens, UniProt Q9NTG7); experiment: SirT3 activity assay (HPLC of 2′- and 3′-AADPR); assay type: biochemical
T2 sequence (Q9NTG7 1-399): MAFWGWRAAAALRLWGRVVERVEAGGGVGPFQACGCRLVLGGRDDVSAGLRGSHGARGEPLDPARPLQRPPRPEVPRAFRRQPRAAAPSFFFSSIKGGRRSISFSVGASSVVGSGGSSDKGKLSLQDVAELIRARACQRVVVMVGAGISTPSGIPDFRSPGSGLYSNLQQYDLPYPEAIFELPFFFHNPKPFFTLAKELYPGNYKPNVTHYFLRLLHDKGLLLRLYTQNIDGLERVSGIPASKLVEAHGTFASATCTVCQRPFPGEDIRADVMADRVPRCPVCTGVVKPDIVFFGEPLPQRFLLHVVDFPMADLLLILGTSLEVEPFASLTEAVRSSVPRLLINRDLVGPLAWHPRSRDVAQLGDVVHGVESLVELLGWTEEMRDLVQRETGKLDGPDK
Procedure: as §3, with “SirT3” for “SirT2”, “13.9” for “16.6”, “2 hours” for “45 mins”
SirT3 Activity Assay: Reactions containing 800 μM NAD^+, 500 μM H3 peptide, and 100 mM phosphate buffer at pH 7.5, with varying concentrations of 2′-deoxy-2′-chloro-nucleosides were initiated by addition of SirT3 enzyme to a concentration of 13.9 μM. Reactions were incubated for 2 hours at 37° C. and quenched by addition of trifluoroacetic acid to pH 2. After centrifugation to remove precipitates, reactions were injected on HPLC for activity analysis. Production of 2′- and 3′-AADPR were analyzed at 260 nm.

[1] = MTT 2 hours, chloro-nucleosides
[2] = control = 1, chloro-nucleosides

Compound	100 μM absorbance (HEK293 cells; MTT 1.5 hours)	100 μM relative viability (HEK293 cells)	500 μM absorbance (HEK293 cells; MTT 1.5 hours)	500 μM relative viability (HEK293 cells)	EC50 (HEK293 cells) [µM]	100 μM absorbance (Neuro2A cells; MTT 1.5 hours)	100 μM relative viability (Neuro2A cells; control = 1)	500 μM absorbance (Neuro2A cells; MTT 1.5 hours)	500 μM relative viability (Neuro2A cells; control = 1)	EC50 (Neuro2A cells) [µM]	inhibition at 1000 µM (SirT2) [%]	other results
2′-deoxy-2′-fluoro-ribo-NAD^+ [ribo-F-NAD]	1.4985	0.6592	1.384	0.6087	1020	1.6122	0.663	0.6455	0.265	350		
NC(=O)c1ccc[n+]([C@@H]2O[C@H](COP(=O)([O-])OP(=O)(O)OC[C@H]3O[C@@H](n4cnc5c(N)ncnc54)[C@H](O)[C@@H]3O)[C@@H](O)[C@@H]2F)c1 [ara-F-NAD, 2′-deoxy-2′-fluoro-arabino-NAD^+]	1.523	0.6699	1.302	0.5729	1000	2.2482	0.924	1.7012	0.699	1500		
NC(=O)c1ccc[n+]([C@H]2O[C@H](CO)C(O)C2Cl)c1 (stereo partly drawn) [α-ara-Cl-NR, 1-(2′-deoxy-2′-chloro-arabinofuranosyl)-nicotinamide]												100 μM absorbance (HEK293 cells; [1]): 2.09; 100 μM relative viability (HEK293 cells; chloro-nucleosides): 0.8601; 500 μM absorbance (HEK293 cells; [1]): 1.77; 500 μM relative viability (HEK293 cells; chloro-nucleosides): 0.7284; kills % of HEK293 cells (HEK293 cells; HEK293, at 500 μM): kills 30% at 500 μM; 100 μM absorbance (Neuro2A cells; [1]): 2.575; 100 μM relative viability (Neuro2A cells; [2]): 1.089; 500 μM absorbance (Neuro2A cells; [1]): 2.34; 500 μM relative viability (Neuro2A cells; [2]): 0.9894; toxicity to Neuro2A (in words) (Neuro2A cells; at 500 μM): not toxic at 500 μM
NC(=O)c1ccc[n+]([C@H]2O[C@H](CO)C(O)[C@@H]2Cl)c1 (stereo partly drawn) [α-ribo-Cl-NR, 1-(2-deoxy-2-chloro-D-ribofuranosyl)-nicotinamide]											50	inhibition at 1000 µM (SirT3; at 1 mM, read-out: SirT3 % inhibited): 86%
NC(=O)c1ccc[n+]([C@@H]2O[C@H](CO)C(O)[C@@H]2Cl)c1 (stereo partly drawn) [β-ribo-Cl-NR, 1-(2-deoxy-2-chloro-D-ribofuranosyl)-nicotinamide]											43	Ki (SirT3; 800 μM NAD+, 500 μM H3 peptide, pH 7.5, 2 hours at 37° C.): 82 µM
